Patent publication EP0984975B1, “MULTICYCLIC ERYTHROMYCIN DERIVATIVES” (Abbott Laboratories, priority 1997, dated 1998)

Key:
Experiment in all cases: In vitro assay of antibacterial activity (agar dilution MIC)
Type in all cases: cell-based
EN[…] ATCC 8043 = details: ENTEROCOCCUS FAECIUM ATCC 8043; BHI agar, 35-37 °C for 20 to 24 hours; unit assumed
Procedure: (§1) Representative compounds of the present invention were assayed in vitro for antibacterial activity as follows: Twelve petri dishes containing successive aqueous dilutions of the test compound mixed with 10 mL of sterilized Brain Heart Infusion (BHI) agar (Difco 0418-01-5) were prepared. Each plate was inoculated with 1:100 (or 1:10 for slow-growing strains, such as Micrococcus and Streptococcus) dilutions of up to 32 different microorganisms, using a Steers replicator block. The inoculated plates were incubated at 35-37 °C for 20 to 24 hours. In addition, a control plate, using BHI agar containing no test compound, was prepared and incubated at the beginning and end of each test.
(§2) An additional plate containing a compound having known susceptibility patterns for the organisms being tested and belonging to the same antibiotic class as the test compound was also prepared and incubated as a further control, as well as to provide test-to-test comparability. Erythromycin A was used for this purpose.
(§3) After incubation, each plate was visually inspected. The minimum inhibitory concentration (MIC) was defined as the lowest concentration of drug yielding no growth, a slight haze, or sparsely isolated colonies on the inoculum spot as compared to the growth control.

[1] = test system: STAPHYLOCOCCUS EPIDERMIDIS 3519; details: STAPHYLOCOCCUS EPIDERMIDIS 3519; BHI agar, 35-37 °C for 20 to 24 hours; unit assumed
Procedure: as §1, §2, §3

[2] = test system: STREPTOCOCCUS PYOGENES 930; details: STREPTOCOCCUS PYOGENES 930; BHI agar, 35-37 °C for 20 to 24 hours; unit assumed
Procedure: as §1, §2, §3

[3] = test system: STREPTOCOCCUS PYOGENES PIU 2548; details: STREPTOCOCCUS PYOGENES PIU 2548; BHI agar, 35-37 °C for 20 to 24 hours; unit assumed
Procedure: as §1, §2, §3

[4] = test system: STAPHYLOCOCCUS AUREUS A5177; details: BHI agar, 35-37 °C for 20 to 24 hours, unit assumed
Procedure: as §1, §2, §3

STR[…] 508 = details: STREPTOCOCCUS AGALACTIAE CMX 508; BHI agar, 35-37 °C for 20 to 24 hours; unit assumed
Procedure: as §1, §2, §3

ESCHERICHIA COLI JUHL = details: ESCHERICHIA COLI JUHL; BHI agar, 35-37 °C for 20 to 24 hours; unit assumed
Procedure: as §1, §2, §3

[5] = test system: STAPHYLOCOCCUS AUREUS 1775; details: BHI agar, 35-37 °C for 20 to 24 hours, unit assumed
Procedure: as §1, §2, §3

[6] = test system: MYCOBACTERIUM SMEGMATIS ATCC 114; details: MYCOBACTERIUM SMEGMATIS ATCC 114; BHI agar, 35-37 °C for 20 to 24 hours; unit assumed
Procedure: as §1, §2, §3

[7] = test system: STAPHYLOCOCCUS AUREUS NCTC10649M; details: BHI agar, 35-37 °C for 20 to 24 hours, unit assumed
Procedure: as §1, §2, §3

M[…] ATCC 9341 = details: MICROCOCCUS LUTEUS ATCC 9341; BHI agar, 35-37 °C for 20 to 24 hours; unit assumed
Procedure: as §1, §2, §3

[8] = test system: STAPHYLOCOCCUS AUREUS CMX 642A; details: BHI agar, 35-37 °C for 20 to 24 hours, unit assumed
Procedure: as §1, §2, §3

ESCHERICHIA COLI DC-2 = details: BHI agar, 35-37 °C for 20 to 24 hours, unit assumed
Procedure: as §1, §2, §3

[9] = test system: STREPTOCOCCUS PYOGENES EES61; details: STREPTOCOCCUS PYOGENES EES61; BHI agar, 35-37 °C for 20 to 24 hours; unit assumed
Procedure: as §1, §2, §3

[10] = test system: STREPTOCOCCUS BOVIS A-5169; details: STREPTOCOCCUS BOVIS A-5169; BHI agar, 35-37 °C for 20 to 24 hours; unit assumed
Procedure: as §1, §2, §3

[11] = test system: STAPHYLOCOCCUS AUREUS A-5278; details: BHI agar, 35-37 °C for 20 to 24 hours, unit assumed
Procedure: as §1, §2, §3

[12] = test system: STAPHYLOCOCCUS AUREUS ATCC 6538P; details: BHI agar, 35-37 °C for 20 to 24 hours, unit assumed
Procedure: as §1, §2, §3

M[…] ATCC 4698 = details: MICROCOCCUS LUTEUS ATCC 4698; BHI agar, 35-37 °C for 20 to 24 hours; unit assumed
Procedure: as §1, §2, §3

N. ASTEROIDES ATCC 9970 = details: BHI agar, 35-37 °C for 20 to 24 hours, unit assumed
Procedure: as §1, §2, §3

[13] = test system: STAPHYLOCOCCUS AUREUS CMX 553; details: BHI agar, 35-37 °C for 20 to 24 hours, unit assumed
Procedure: as §1, §2, §3

CANDIDA ALBICANS CCH 442 = details: BHI agar, 35-37 °C for 20 to 24 hours, unit assumed
Procedure: as §1, §2, §3

ESCHERICHIA COLI SS = details: ESCHERICHIA COLI SS; BHI agar, 35-37 °C for 20 to 24 hours; unit assumed
Procedure: as §1, §2, §3

Structure (SMILES) | Antibacterial Activity (MIC's) (EN[…] ATCC 8043) | Antibacterial Activity (MIC's) [1] | Antibacterial Activity (MIC's) [2] | Antibacterial Activity (MIC's) [3] | Antibacterial Activity (MIC's) [4] | Antibacterial Activity (MIC's) (STR[…] 508) | Antibacterial Activity (MIC's) (ESCHERICHIA COLI JUHL) | Antibacterial Activity (MIC's) [5] | Antibacterial Activity (MIC's) [6] | Antibacterial Activity (MIC's) [7] | Antibacterial Activity (MIC's) (M[…] ATCC 9341) | Antibacterial Activity (MIC's) [8] | Antibacterial Activity (MIC's) (ESCHERICHIA COLI DC-2) | Antibacterial Activity (MIC's) [9] | Antibacterial Activity (MIC's) [10] | Antibacterial Activity (MIC's) [11] | Antibacterial Activity (MIC's) [12] | Antibacterial Activity (MIC's) (M[…] ATCC 4698) | Antibacterial Activity (MIC's) (N. ASTEROIDES ATCC 9970) | Antibacterial Activity (MIC's) [13] | other results
CC[C@H]1OC(=O)[C@H](C)C(=O)[C@H](C)[C@@H](O[C@@H]2O[C@H](C)C[C@H](N(C)C)[C@H]2O)[C@](C)(OC)C[C@@H](C)C2=Nc3ccccc3N3C(=O)O[C@@]1(C)[C@H]3[C@H]2C [Ex 2, Compound of Formula (I): R^1 is methoxy: R^2 is H, R^3 is absent, the double bond is present, A, B, D and E are H, and Y and Z taken together with the atom to which they are attached form an oxo group] | 0.2 µg/mL | 0.39 µg/mL | > 100 µg/mL | 0.39 µg/mL | 0.39 µg/mL | 0.1 µg/mL | > 100 µg/mL | > 100 µg/mL | 3.1 µg/mL | 0.39 µg/mL | 0.1 µg/mL | 0.39 µg/mL | > 100 µg/mL | 0.1 µg/mL | 0.1 µg/mL | > 100 µg/mL | 0.39 µg/mL | 0.78 µg/mL | 0.39 µg/mL | 0.39 µg/mL | Antibacterial Activity (MIC's) (CANDIDA ALBICANS CCH 442): > 100 µg/mL; Antibacterial Activity (MIC's) (ESCHERICHIA COLI SS): 1.56 µg/mL
CC[C@H]1OC(=O)[C@H](C)C(=O)[C@H](C)[C@@H](O[C@@H]2O[C@H](C)C[C@H](N(C)C)[C@H]2O)[C@](C)(OC)C[C@@H](C)C2=Nc3cc(OC)ccc3N3C(=O)O[C@@]1(C)[C@H]3[C@H]2C [Ex 5, Compound of Formula (I): R^1 is methoxy; R^2 is H, R^3 is absent, the double bond is present, A, B, and E are H, D is methoxy, and Y and Z taken together with the atom to which they are attached form an oxo group] | 0.1 µg/mL | 0.78 µg/mL | > 100 µg/mL | 0.39 µg/mL | 0.78 µg/mL | 0.02 µg/mL | > 100 µg/mL | > 100 µg/mL | 1.56 µg/mL | 0.78 µg/mL | 0.1 µg/mL | 0.78 µg/mL | > 100 µg/mL | 0.02 µg/mL | 0.02 µg/mL | > 100 µg/mL | 0.78 µg/mL | 0.78 µg/mL | 0.2 µg/mL | 0.78 µg/mL | Antibacterial Activity (MIC's) (CANDIDA ALBICANS CCH 442): > 100 µg/mL; Antibacterial Activity (MIC's) (ESCHERICHIA COLI SS): 50 µg/mL
CC[C@H]1OC(=O)[C@H](C)C(=O)[C@H](C)[C@@H](O[C@@H]2O[C@H](C)C[C@H](N(C)C)[C@H]2O)[C@](C)(OC)C[C@@H](C)C2=Nc3cccnc3N3C(=O)O[C@@]1(C)[C@H]3[C@H]2C [Ex 7, Compound of Formula (II): R^1 is methoxy; R^2 is H, R^3 is absent, the double bond is present, B, D and E are H, and Y and Z taken together with the atom to which they are attached form an oxo group] | 0.1 µg/mL | 0.39 µg/mL | > 100 µg/mL | 0.39 µg/mL | 0.39 µg/mL | 0.05 µg/mL | > 100 µg/mL | > 100 µg/mL | 3.1 µg/mL | 0.39 µg/mL | 0.05 µg/mL | 0.39 µg/mL | > 100 µg/mL | 0.05 µg/mL | 0.05 µg/mL | > 100 µg/mL | 0.39 µg/mL | 0.39 µg/mL | 0.1 µg/mL | 0.39 µg/mL | Antibacterial Activity (MIC's) (CANDIDA ALBICANS CCH 442): > 100 µg/mL; Antibacterial Activity (MIC's) (ESCHERICHIA COLI SS): 0.78 µg/mL
C=CCO[C@]1(C)C[C@@H](C)C2=Nc3ccccc3N3C(=O)O[C@](C)([C@@H](CC)OC(=O)[C@H](C)C(=O)[C@H](C)[C@H]1O[C@@H]1O[C@H](C)C[C@H](N(C)C)[C@H]1O)[C@H]3[C@H]2C [Ex 8, Compound of Formula (I): R^1 is allyloxy; R^2 is H, R^3 is absent, the double bond is present, A, B, D and E are H, and Y and Z taken together with the atom to which they are attached form an oxo group] | 0.78 µg/mL | 1.56 µg/mL | > 100 µg/mL | 0.78 µg/mL | 0.78 µg/mL | 0.39 µg/mL | > 100 µg/mL | > 100 µg/mL | 6.2 µg/mL | 0.78 µg/mL | 0.78 µg/mL | 0.78 µg/mL | > 100 µg/mL | 0.39 µg/mL | 0.1 µg/mL | > 100 µg/mL | 0.78 µg/mL | 1.56 µg/mL | 3.1 µg/mL | 0.78 µg/mL | Antibacterial Activity (MIC's) (CANDIDA ALBICANS CCH 442): > 100 µg/mL; Antibacterial Activity (MIC's) (ESCHERICHIA COLI SS): 12.5 µg/mL
